For 27 molecules, IC50 results are on record in patent US9708316B2 (BRISTOL-MYERS SQUIBB COMPANY, priority 2014, dated 2017).

Test [1] addresses T1, HIS-TGFβR1 T204D (Homo sapiens, UniProt P36897, T204D).
T1 sequence (P36897 34-503 T204D): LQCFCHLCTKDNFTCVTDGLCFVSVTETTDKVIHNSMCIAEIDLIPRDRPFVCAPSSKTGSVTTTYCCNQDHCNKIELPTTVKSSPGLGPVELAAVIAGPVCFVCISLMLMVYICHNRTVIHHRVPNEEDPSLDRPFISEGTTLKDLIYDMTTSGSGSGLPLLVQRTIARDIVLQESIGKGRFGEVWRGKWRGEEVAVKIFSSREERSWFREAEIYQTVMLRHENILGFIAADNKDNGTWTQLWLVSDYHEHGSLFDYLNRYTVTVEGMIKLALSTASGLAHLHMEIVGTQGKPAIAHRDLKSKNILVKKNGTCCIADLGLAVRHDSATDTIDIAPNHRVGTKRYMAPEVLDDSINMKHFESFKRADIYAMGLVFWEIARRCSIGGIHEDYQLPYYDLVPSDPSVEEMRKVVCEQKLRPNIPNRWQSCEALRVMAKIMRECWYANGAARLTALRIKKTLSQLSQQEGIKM
Kind of test: HTRF probe-displacement assay, HIS-TGFβR1 T204D. To be noted: read-out: TGFβR1 (μM) IC50. It is filed as binding. (In general: TR-FRET usually uses a lanthanide donor and a delayed reading to cut background.)

Test [2] has as its target HIS-TGFβR2 WT (Homo sapiens, UniProt P37173). Description: HTRF probe-displacement assay, HIS-TGFβR2 WT. In kind it is binding.

Chain of HIS-TGFβR2 WT (P37173 23-567): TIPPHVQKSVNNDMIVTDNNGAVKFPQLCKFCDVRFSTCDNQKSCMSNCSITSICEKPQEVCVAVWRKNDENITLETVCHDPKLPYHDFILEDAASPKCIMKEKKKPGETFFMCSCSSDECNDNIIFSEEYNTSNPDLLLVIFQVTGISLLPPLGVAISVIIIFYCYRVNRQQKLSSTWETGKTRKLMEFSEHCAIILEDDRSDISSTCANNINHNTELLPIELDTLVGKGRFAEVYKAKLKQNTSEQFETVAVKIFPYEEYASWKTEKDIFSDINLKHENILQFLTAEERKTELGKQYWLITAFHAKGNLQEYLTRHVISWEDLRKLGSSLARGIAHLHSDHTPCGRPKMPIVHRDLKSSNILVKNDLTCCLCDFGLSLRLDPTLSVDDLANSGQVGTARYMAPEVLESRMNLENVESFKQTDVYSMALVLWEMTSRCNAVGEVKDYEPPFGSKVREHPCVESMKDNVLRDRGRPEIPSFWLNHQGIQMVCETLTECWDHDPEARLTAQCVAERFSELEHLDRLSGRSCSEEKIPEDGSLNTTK

With `[2H]C([2H])([2H])C(O)c1ccnc2c(-c3cccc(C(F)F)n3)c(-c3ccnc(NC(C)=O)c3)[nH]c12` (stereo not drawn) [Example 145, N-(4-{3-[6-(Difluoromethyl)pyridin-2-yl]-7-[1-hydroxy(2,2,2-2H)ethyl]-1H-pyrrolo[3,2-b]pyridin-2-yl}pyridin-2-yl)acetamide], the IC50 – broadly, the concentration needed to halve the response being measured – worked out at 0.002 µM in test [1] and 2.94 µM in test [2].
For `CC(=O)Nc1cc(-c2[nH]c3c(C(C)O)ccnc3c2-c2ccc(Cl)nc2)ccn1` (stereo not drawn) [Example 264, N-(4-(3-(6-Chloropyridin-3-yl)-7-(1-hydroxyethyl)-1H-pyrrolo[3,2-b]pyridin-2-yl)pyridin-2-yl)acetamide], in that order: 0.001 µM and 0.681 µM.
Regarding `CC(=O)Nc1cc(-c2[nH]c3c(C(=O)NC(CO)CO)cc(Cl)nc3c2-c2cccnc2)ccn1` [Example 60, 5-Chloro-N-(1,3-dihydroxypropan-2-yl)-2-(2-acetamidopyridin-4-yl)-3-(pyridin-3-yl)-1H-pyrrolo[3,2-b]pyridine-7-carboxamide], the IC50 in test [1] was found to be 0.32 µM; in test [2], 6.65 µM.
Regarding `CC(=O)Nc1cc(-c2[nH]c3c(CN4CCOCC4)ccnc3c2-c2cccc(C(F)F)n2)ccn1` [Example 140, N-(4-{3-[6-(Difluoromethyl)pyridin-2-yl]-7-(morpholin-4-ylmethyl)-1H-pyrrolo[3,2-b]pyridin-2-yl}pyridin-2-yl)acetamide], the IC50 in test [1] came out at 0.001 µM; in test [2], 7.6 µM.
Take `COc1ccc(-c2c(-c3ccnc(NC(C)=O)c3)[nH]c3c(C#N)ccnc23)cn1` [Example 80, N-(4-(7-Cyano-3-(6-methoxypyridin-3-yl)-1H-pyrrolo[3,2-b]pyridin-2-yl)pyridin-2-yl)acetamide]: the IC50 stood at 0.007 µM in test [1] and 0.083 µM in test [2].
As to `CCCc1ccnc2c(-c3cccc(C(F)F)n3)c(-c3ccnc(NC(C)=O)c3)[nH]c12` [Example 132, N-(4-{3-[6-(Difluoromethyl)pyridin-2-yl]-7-propyl-1H-pyrrolo[3,2-b]pyridin-2-yl}pyridin-2-yl)acetamide], the IC50 in test [1] was 0.001 µM; in test [2], above 15 µM.
For `CC(=O)Nc1cc(-c2[nH]c3c(C(F)F)ccnc3c2-c2nc(C)cs2)ccn1` [Example 222, N-(4-(7-(Difluoromethyl)-3-(4-methylthiazol-2-yl)-1H-pyrrolo[3,2-b]pyridin-2-yl)pyridin-2-yl)acetamide], in that order: 0.0015 µM and 0.129 µM.
For `CN1CCN(CC(=O)Nc2cc(-c3[nH]c4cc(Cl)cnc4c3-c3ccc(F)cn3)ccn2)CC1` [Example 88, N-{4-[6-Chloro-3-(5-fluoropyridin-2-yl)-1H-pyrrolo[3,2-b]pyridin-2-yl]pyridin-2-yl}-2-(4-methylpiperazin-1-yl)acetamide], in that order: 0.001 µM and 9.92 µM.
For `O=C(CNCCN1CCOCC1)Nc1cc(-c2[nH]c3cc(Cl)cnc3c2-c2ccc(F)cn2)ccn1` [Example 241, N-{4-[6-Chloro-3-(5-fluoropyridin-2-yl)-1H-pyrrolo[3,2-b]pyridin-2-yl]pyridin-2-yl}-2-{[2-(morpholin-4-yl)ethyl]amino}acetamide], in that order: 0.004 µM and 3.67 µM.
Take `CC(=O)Nc1cc(-c2[nH]c3cc(F)cnc3c2-c2ncc(Cl)s2)ccn1` [Example 206, N-(4-(3-(5-Chlorothiazol-2-yl)-6-fluoro-1H-pyrrolo[3,2-b]pyridin-2-yl)pyridin-2-yl)acetamide]: the IC50 came to 0.0068 µM in test [1] and 0.325 µM in test [2].
For `COc1ccc(-c2c(-c3ccnc(NC(C)=O)c3)[nH]c3c(Cl)ccnc23)cn1` [Example 271, N-(4-(7-Chloro-3-(6-methoxypyridin-3-yl)-1H-pyrrolo[3,2-b]pyridin-2-yl)pyridin-2-yl)acetamide], in that order: 0.002 µM and 0.352 µM.
For `COc1cnc2c(-c3ccc(Cl)cn3)c(-c3ccnc(NC(C)=O)c3)[nH]c2c1` [Example 50, N-{4-[3-(5-Chloropyridin-2-yl)-6-methoxy-1H-pyrrolo[3,2-b]pyridin-2-yl]pyridin-2-yl}acetamide], in that order: 0.003 µM and 6.57 µM.
In the case of `CC(=O)Nc1cc(-c2[nH]c3c(CO)ccnc3c2-c2cccc(C(F)F)n2)ccn1` [Example 142, N-(4-{3-[6-(Difluoromethyl)pyridin-2-yl]-7-(hydroxymethyl)-1H-pyrrolo[3,2-b]pyridin-2-yl}pyridin-2-yl)acetamide], the values for the IC50 in test [1] and in test [2] were 0.001 µM and 7.81 µM, respectively.
For `CCN1CCN(CC(=O)Nc2cc(-c3[nH]c4cc(Cl)cnc4c3-c3ccc(OC)cn3)ccn2)CC1` [Example 251, N-(4-(6-Chloro-3-(5-methoxypyridin-2-yl)-1H-pyrrolo[3,2-b]pyridin-2-yl)pyridin-2-yl)-2-(4-ethylpiperazin-1-yl)acetamide], the IC50 in test [1] was 0.005 µM; in test [2], above 15 µM.
For `CC(=O)Nc1cc(-c2[nH]c3cccnc3c2-c2cc(C)c(F)cn2)ccn1` [Example 24, N-{4-[3-(5-Fluoro-4-methylpyridin-2-yl)-1H-pyrrolo[3,2-b]pyridin-2-yl]pyridin-2-yl}acetamide], the IC50 in test [1] was found to be 0.018 µM; in test [2], 0.21 µM.
For `CC(=O)Nc1cc(-c2[nH]c3cccnc3c2-c2cccc(F)n2)ccn1` [Example 16, N-{4-[3-(6-Fluoropyridin-2-yl)-1H-pyrrolo[3,2-b]pyridin-2-yl]pyridin-2-yl}acetamide] the same measures were 0.002 µM and 0.087 µM.
For `CC(=O)Nc1cc(-c2[nH]c3cccnc3c2-c2cnc(F)c(C)c2)ccn1` [Example 11, N-{4-[3-(6-Fluoro-5-methylpyridin-3-yl)-1H-pyrrolo[3,2-b]pyridin-2-yl]pyridin-2-yl}acetamide] the same measures were 0.027 µM and 0.009 µM.
For `COc1cnc2c(-c3ccc(F)c(C)n3)c(-c3ccnc(NC(C)=O)c3)[nH]c2c1` [Example 51, N-{4-[3-(5-Fluoro-6-methylpyridin-2-yl)-6-methoxy-1H-pyrrolo[3,2-b]pyridin-2-yl]pyridin-2-yl}acetamide] the same measures were 0.002 µM and 0.61 µM.
For the molecule `CC(=O)Nc1cc(-c2[nH]c3cccnc3c2-c2nccc(C)n2)ccn1` [Example 195, N-(4-(3-(4-Methylpyrimidin-2-yl)-1H-pyrrolo[3,2-b]pyridin-2-yl)pyridin-2-yl)acetamide], the results for the IC50 in test [1] and in test [2] were 0.0048 µM and above 15 µM, respectively.
For `CC(=O)Nc1cc(-c2[nH]c3cc(F)cnc3c2-c2nc(C#N)cs2)ccn1` [Example 226, N-(4-(3-(4-Cyanothiazol-2-yl)-6-fluoro-1H-pyrrolo[3,2-b]pyridin-2-yl)pyridin-2-yl)acetamide], in that order: 0.0041 µM and 1.55 µM.
For `COc1cnc2c(-c3ccc(C(F)F)cn3)c(-c3ccnc(NC(C)=O)c3)[nH]c2c1` [Example 110, N-(4-(3-(5-(Difluoromethyl)pyridin-2-yl)-6-methoxy-1H-pyrrolo[3,2-b]pyridin-2-yl)pyridin-2-yl)acetamide], in that order: 0.053 µM and above 15 µM.
For `CC(=O)Nc1cc(-c2[nH]c3cccnc3c2-c2cn[nH]c2)ccn1` [Example 189, N-(4-(3-(1H-Pyrazol-4-yl)-1H-pyrrolo[3,2-b]pyridin-2-yl)pyridin-2-yl)acetamide] the same measures were 0.249 µM and 0.089 µM.
Consider `COc1ccc(-c2c(-c3ccnc(NC(C)=O)c3)[nH]c3cc(C#N)cnc23)cn1` [Example 78, N-(4-(6-Cyano-3-(6-methoxypyridin-3-yl)-1H-pyrrolo[3,2-b]pyridin-2-yl)pyridin-2-yl)acetamide], for which the IC50 in test [1] worked out at 0.003 µM; in test [2], 0.16 µM.
Take `COc1ccc(-c2c(-c3ccnc(NC(C)=O)c3)[nH]c3cc(N4CC[C@H](O)[C@@H](O)C4)cnc23)nc1` [Example 166, N-(4-(6-((3S,4S)-3,4-Dihydroxypiperidin-l-yl)-3-(5-methoxypyridin-2-yl)-1H-pyrrolo[3,2-b]pyridin-2-yl)pyridin-2-yl)acetamide]: the values for the IC50 in test [1] and in test [2] were 0.0132 µM and above 15 µM, respectively.
Regarding `COc1ccc(-c2c(-c3ccnc(NC(=O)CN4CCN(CCO)CC4)c3)[nH]c3cc(OC)cnc23)nc1` [Example 120, 2-[4-(2-Hydroxyethyl)piperazin-1-yl]-N-{4-[6-methoxy-3-(5-methoxypyridin-2-yl)-1H-pyrrolo[3,2-b]pyridin-2-yl]pyridin-2-yl}acetamide], the IC50 in test [1] was 0.001 µM; in test [2], above 15 µM.
For `COc1ccc(-c2c(-c3ccnc(NC(=O)CN4CCOCC4)c3)[nH]c3cccnc23)cn1` [Example 286, N-(4-(3-(6-Methoxypyridin-3-yl)-1H-pyrrolo[3,2-b]pyridin-2-yl)pyridin-2-yl)-2-morpholinoacetamide], in that order: 0.001 µM and 0.253 µM.
For `COc1ccc(-c2c(-c3ccnc(NC(C)=O)c3)[nH]c3c(OC)ccnc23)nc1` [Example 266, N-(4-(7-Methoxy-3-(5-methoxypyridin-2-yl)-1H-pyrrolo[3,2-b]pyridin-2-yl)pyridin-2-yl)acetamide] the same measures were 0.005 µM and above 15 µM.
